Test results reported in patent publication US10144723B2, “Treatment of solid tumors by inhibiting MRK/ZAK” (The Feinstein Institute For Medical Research, priority 2014, dated 2018).

What was measured:
p38 = assay: IR-induced signaling downstream of MRK, phospho-p38 western blot; type: cell-based; details: UW228 cells, 500 nM M443 6 hours, 1 hour after IR
Experimental: (§1) FIG. 7. Inhibition of IR-induced signaling downstream of MRK by M443. UW228 medulloblastoma cells were treated with 500 nM of M443 or with vehicle for 6 hours, and then exposed to IR or not. One hour after IR treatment, cells were harvested and cell lysates were tested by western blot for the activities of MRK, p38 and Chk2 proteins using the respective phospho-specific antibodies.
(§2) By inhibiting MRK activity, M443 was expected to reduce signal transduction downstream of MRK. […] Thus, M443 inhibits MRK activation by IR and its downstream signaling events, which leads to loss of cell viability after exposure to IR.

MRK [1] = assay: Irreversible inhibition of MRK activity after washout (P-MRK western blot); type: cell-based; details: cells expressing activatable MRK construct, pretreated 6 hours, washed, then homodimerizing drug
Experimental: FIG. 5. M443 inhibits MRK activity in an irreversible fashion. Cells expressing an activatable MRK construct were pretreated with the indicated inhibitors for 6 hours, then they were washed with PBS 3 times, incubated for 15 minutes, washed once more and after 15 minutes they were treated with the homodimerizing drug to activate MRK. Cell lysates were western blotted with the P-MRK antibody to detect active MRK (top blot). Histograms are data from quantified P-MRK bands from three independent experiments.

BCR-Abl = target: T1, BCR-Abl (Homo sapiens, UniProt P00519); assay: BCR-Abl activity in K562 cells, western blot; type: cell-based; details: 1 μM, 6 hours
T1 construct: BCR (N-terminal fusion partner, P11274); endogenous in cells; host or cells: K562; the other entry of the earlier key: BCR (P11274, Breakpoint cluster region protein)
Experimental: (§3) FIG. 11. M443 inhibits MRK activity, but not BCR-Abl. K562 cells were treated with DMSO, 1 μM Nilotinib or 1 μM M443 for 6 hours and then they were processed for western blot with the indicated antibodies.

MRK [2] = target: T2, MRK (Homo sapiens, UniProt Q9NYL2); assay: Inhibition of endogenous MRK activity induced by radiation in medulloblastoma cells; type: cell-based; parameters: endogenous in cells; host or cells: UW228 medulloblastoma cells
Experimental: FIG. 7. Inhibition of IR-induced signaling downstream of MRK by M443. […] One hour after IR treatment, cells were harvested and cell lysates were tested by western blot for the activities of MRK, p38 and Chk2 proteins using the respective phospho-specific antibodies.

4T1 breast cancer cells = assay: MTT cell viability after X-ray irradiation; type: cell-based; details: 4T1 cells, M443 6 hours before irradiation, MTT 72 hours after
Experimental: FIG. 8. […] 4T1 breast cancer cells were plated in 96-well plates (750 cells per well/8 wells per condition) and treated with M443 at the indicated concentrations 6 hours before irradiating at the indicated dosages. 72 hours after irradiation MTT solution (1.25 μg/μl) was added to all wells and incubated for an additional 3 hours before cell viability/mitochondrial activity was analyzed. Shown are the means+/−SD of 8 replicate wells.

c-Abl = c-Abl activity in brain lysates, phospho-Abl western blot; type: in vivo, nude mice; details: treated versus untreated tumor
Experimental: M443 is a derivative of nilotinib, an inhibitor of the BCR-Abl oncogene. To examine the specificity of M443, the activity of c-Abl was also determined, by blotting the brain lysates with a phospho-Abl-(P-c-Abl) specific antibody. […] As Abl is known to respond to stress, the increase in P-c-Abl may be caused by M443-induced cell stress.

[3] = system: IMB226 medulloblastoma cells; assay: Animal model of medulloblastoma, orthotopic implantation, survival; type: in vivo, nude mice
Experimental: FIG. 9. Kaplan-Meier survival curve. Three weeks after implantation of IMB226 medulloblastoma cells in nude mice, animals were randomized into 4 groups of 12 mice for each treatment. M443 or the vehicle were delivered directly into the tumor via an ALZET pump.
The effect of M443 was tested in an animal model of medulloblastoma that employs orthotopic implantation of IMB226 medulloblastoma cells in nude mice. M443 was administered directly into the tumor using an osmotic pump that is connected to a catheter implanted into the brain in order to bypass the blood-brain barrier.

MRK [4] = assay: Inhibition of MRK in vivo, brain lysates western blot; parameters: species or system nude mice; details: 18 hours after pump implantation
Experimental: FIG. 10. Inhibition of MRK in vivo. Brains from control and M443-treated animals were harvested 18 hours after pump implantation. Each cerebellum was dissected from the rest of the brain and divided into left (L) and right (R), top (T) and bottom (B) portions. Brain lysates were tested for MRK activity by western blotting. Human HLA (hu-HLA) was used to identify the brain portions containing tumor cells of human origin. Tubulin was used as loading control.
To confirm that M443 administered into the brain inhibited MRK, brain extracts were obtained 18 hours after pump implantation, and MRK activity determined. […] The hu-HLA signal indicates the presence of tumor in the treated sample (lane 5).

[5] = system: UW228 medulloblastoma cells; assay: Colony formation assay with radiation; type: cell-based; details: 6 hours M443 before radiation, colonies counted after 7 days
Experimental: FIG. 6. M443 sensitizes UW228 medulloblastoma cells to radiation. UW228 cells were seeded for the colony formation assay at 500 cells/dish. The following day, they were treated for 6 hours with the indicated doses of M443 and then exposed to different doses of radiation. After incubation at 37° C. for 7 days, colonies larger than 50 cells were counted.

MRK [6] = target: T2, MRK; assay: MRK activity in K562 cells, western blot; type: cell-based; parameters: endogenous in cells; details: 1 μM, 6 hours
Experimental: as §3

Chk2 = assay: IR-induced signaling downstream of MRK, phospho-Chk2 western blot; type: cell-based; details: UW228 cells, 500 nM M443 6 hours, 1 hour after IR
Experimental: as §1, §2

MRK [7] = target: T2, MRK; parameters: endogenous in cells; host or cells: UW228 medulloblastoma cells; details: reference (6); cited from earlier work

T2 sequence (Q9NYL2 whole entry): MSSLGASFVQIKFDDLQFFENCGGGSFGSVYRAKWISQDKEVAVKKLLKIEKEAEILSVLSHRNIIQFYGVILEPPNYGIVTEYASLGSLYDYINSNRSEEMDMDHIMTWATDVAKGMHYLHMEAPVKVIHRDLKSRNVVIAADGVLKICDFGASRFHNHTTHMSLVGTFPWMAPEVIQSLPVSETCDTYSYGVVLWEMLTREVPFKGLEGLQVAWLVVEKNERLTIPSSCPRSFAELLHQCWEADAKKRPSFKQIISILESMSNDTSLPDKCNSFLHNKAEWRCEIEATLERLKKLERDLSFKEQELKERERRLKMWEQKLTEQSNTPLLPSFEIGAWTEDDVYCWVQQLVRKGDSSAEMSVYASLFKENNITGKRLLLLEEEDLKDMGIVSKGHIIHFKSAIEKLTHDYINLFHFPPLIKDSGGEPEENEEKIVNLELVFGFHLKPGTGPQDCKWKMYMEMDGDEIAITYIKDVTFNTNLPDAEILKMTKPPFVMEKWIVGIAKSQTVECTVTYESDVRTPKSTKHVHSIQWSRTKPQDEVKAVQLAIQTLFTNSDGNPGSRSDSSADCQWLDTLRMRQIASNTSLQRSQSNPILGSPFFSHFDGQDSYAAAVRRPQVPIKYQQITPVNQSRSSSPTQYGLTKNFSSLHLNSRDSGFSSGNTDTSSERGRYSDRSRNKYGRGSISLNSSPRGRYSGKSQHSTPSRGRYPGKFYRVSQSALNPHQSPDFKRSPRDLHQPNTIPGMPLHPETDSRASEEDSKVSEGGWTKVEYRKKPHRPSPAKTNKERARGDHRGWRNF
T1 sequence (P00519 with tags, fused parts or gaps): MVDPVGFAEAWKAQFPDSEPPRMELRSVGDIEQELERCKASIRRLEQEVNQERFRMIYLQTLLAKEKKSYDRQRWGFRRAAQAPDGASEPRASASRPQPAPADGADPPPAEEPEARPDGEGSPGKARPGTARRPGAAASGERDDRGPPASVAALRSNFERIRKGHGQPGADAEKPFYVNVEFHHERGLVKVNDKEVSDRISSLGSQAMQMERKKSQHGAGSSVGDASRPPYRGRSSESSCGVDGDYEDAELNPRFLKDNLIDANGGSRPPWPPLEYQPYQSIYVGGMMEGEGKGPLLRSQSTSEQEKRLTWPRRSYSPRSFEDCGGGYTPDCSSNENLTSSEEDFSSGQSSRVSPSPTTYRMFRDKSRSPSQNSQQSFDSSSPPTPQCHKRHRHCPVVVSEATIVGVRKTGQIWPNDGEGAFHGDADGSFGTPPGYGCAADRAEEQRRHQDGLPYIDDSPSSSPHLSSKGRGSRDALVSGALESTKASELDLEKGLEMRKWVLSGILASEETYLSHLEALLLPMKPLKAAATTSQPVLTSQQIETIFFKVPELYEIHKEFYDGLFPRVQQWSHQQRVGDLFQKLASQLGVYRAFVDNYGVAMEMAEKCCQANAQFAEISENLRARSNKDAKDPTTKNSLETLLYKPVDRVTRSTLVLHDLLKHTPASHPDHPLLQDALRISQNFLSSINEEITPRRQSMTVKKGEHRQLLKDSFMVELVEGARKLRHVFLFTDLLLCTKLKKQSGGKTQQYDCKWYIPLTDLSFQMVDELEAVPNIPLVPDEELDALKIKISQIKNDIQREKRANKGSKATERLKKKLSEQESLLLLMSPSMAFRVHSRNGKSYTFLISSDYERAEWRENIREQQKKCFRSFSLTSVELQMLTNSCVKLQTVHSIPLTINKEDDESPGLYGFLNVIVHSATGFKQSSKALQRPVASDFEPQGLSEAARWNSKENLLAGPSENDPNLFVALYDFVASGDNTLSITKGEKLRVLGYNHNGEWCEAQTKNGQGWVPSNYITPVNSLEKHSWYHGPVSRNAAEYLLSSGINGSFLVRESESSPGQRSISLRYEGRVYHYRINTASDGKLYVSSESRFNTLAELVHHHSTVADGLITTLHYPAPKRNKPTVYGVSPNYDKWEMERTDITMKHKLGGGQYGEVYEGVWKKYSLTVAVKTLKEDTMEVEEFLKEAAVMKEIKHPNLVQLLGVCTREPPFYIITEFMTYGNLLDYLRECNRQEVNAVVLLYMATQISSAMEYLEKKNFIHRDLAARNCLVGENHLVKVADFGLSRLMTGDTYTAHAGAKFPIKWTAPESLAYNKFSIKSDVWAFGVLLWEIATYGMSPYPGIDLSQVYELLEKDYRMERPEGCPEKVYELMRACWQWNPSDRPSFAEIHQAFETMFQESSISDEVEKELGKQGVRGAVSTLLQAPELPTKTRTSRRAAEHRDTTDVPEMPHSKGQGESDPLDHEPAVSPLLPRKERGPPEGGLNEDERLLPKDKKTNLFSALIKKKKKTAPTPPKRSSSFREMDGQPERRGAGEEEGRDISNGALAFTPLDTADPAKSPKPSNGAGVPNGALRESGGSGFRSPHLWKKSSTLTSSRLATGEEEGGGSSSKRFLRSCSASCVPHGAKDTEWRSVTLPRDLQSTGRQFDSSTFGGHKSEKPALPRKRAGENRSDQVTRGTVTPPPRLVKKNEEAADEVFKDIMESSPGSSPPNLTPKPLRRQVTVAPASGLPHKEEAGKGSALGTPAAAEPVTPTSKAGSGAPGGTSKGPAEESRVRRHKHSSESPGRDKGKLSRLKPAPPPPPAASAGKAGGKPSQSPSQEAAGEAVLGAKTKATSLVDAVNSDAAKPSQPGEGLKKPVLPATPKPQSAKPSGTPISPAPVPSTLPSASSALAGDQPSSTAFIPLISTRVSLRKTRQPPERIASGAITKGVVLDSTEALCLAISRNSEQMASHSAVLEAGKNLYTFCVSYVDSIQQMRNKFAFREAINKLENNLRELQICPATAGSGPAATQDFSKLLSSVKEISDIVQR

SMILES	activation of p38 by ionizing radiation (p38)	inhibition of MRK activity (P-MRK) after washout (MRK [1])	inhibition of BCR-Abl in K562 cells (BCR-Abl)	IC50 (MRK [2]) [µM]	sensitization to X-ray irradiation (MTT viability) (4T1 breast cancer cells)	P-c-Abl signal in brain lysates (c-Abl)	survival benefit, M443 on its own ([3]; IMB226 orthotopic in nude mice, M443 into the tumor via osmotic pump, no IR) [days]	increase in survival, combination of M443 and IR ([3]; IMB226 orthotopic in nude mice, M443 into the tumor via osmotic pump, plus IR) [days]	tumor hemorrhage ([3]; M443-treated tumors)	radiosensitization effect on survival ([3]; p<0.0029, 2×2 factorial Cox model)	P-MRK signal in brain lysates (MRK [4])	total MRK levels in tumors (MRK [4])	sensitization to killing by radiation (colony formation) [5]	inhibition of MRK activity in K562 cells (MRK [6])	activation of Chk2 by ionizing radiation (Chk2)	binding to MRK (MRK [7])
C=CC(=O)N1CCCC(c2ccnc(Nc3cc(C(=O)Nc4cc(-n5cnc(C)c5)cc(C(F)(F)F)c4)ccc3C)n2)C1 (stereo not shown) [M443]	greatly reduced	effectively inhibits MRK in an irreversible fashion	does not inhibit BCR-Abl	~0.125	sensitizes breast cancer cells to X-ray irradiation	somewhat increased	5	16	less hemorrhagic	very significant radiosensitization effect	none of the fractions from the M443-treated animal had a detectable signal for P-MRK	strongly decreased	strongly sensitized	as efficient as nilotinib	greatly reduced	
Cc1cn(-c2cc(NC(=O)c3ccc(C)c(Nc4nccc(-c5cccnc5)n4)c3)cc(C(F)(F)F)c2)cn1 [nilotinib]																binds strongly to MRK
